Structures can show the parent of a compound that is named as a salt. Where two headings read alike, the source gives them in different places.
Tests used:
MSSA = assay: MIC susceptibility testing, MSSA; format: cell-based, Staphylococcus aureus
Method: (§1) Susceptibility testing with the exception of Streptococcus pneumoniae was performed by two-fold serial dilutions in Mueller Hinton Broth supplemented with 50 μg/mL Ca^2+. Susceptibility testing of S. pneumoniae was performed by two-fold serial dilutions in Brain-Heart-Infusion Broth supplemented with 50 μg/mL Ca^2+.
(§2) Modal values from up to 6 determinations

[1] = test system: Methicillin-sensitive Staph. epidermidis; assay: MIC susceptibility testing, methicillin-sensitive Staph. epidermidis; format: cell-based, S. epidermidis
Method: as §1, §2

[2] = test system: Vancomycin resistant enterococci, E. faecium; assay: MIC susceptibility testing, vancomycin resistant enterococci (E. faecium); format: cell-based
Method: as §1, §2

S. pyogenes = assay: MIC susceptibility testing, S. pyogenes; format: cell-based
Method: as §1, §2

Aqueous solubility = format: physicochemical
Description: Solubility as employed herein is used generically to refer to a distribution of a compound of formula (I) in a solvent (for example water, saline or an aqueous isotonic solution such as glucose) such that the formulation/composition resulting therefrom is substantially free of visible aggregates and for example is substantially transparent when viewed by the naked eye. Such a formulation would therefore include a whole range of formats which are suitable for infusion and/or injection such as solutions, suspensions, colloids and the like. […]

[3] = test system: Methicillin Resistant Staphylococcus aureus (MRSA, ATCC 33591); assay: Neutropaenic mouse thigh infection model, further experiment; format: in vivo; conditions: IV 2 and 14 h after infection, 2.5-50 mg/Kg, FIG. 3
Method: In a further experiment, groups of 6 male ICR mice weighing 24±2 g were used. Test animals were immunosuppressed by 2 intraperitoneal injections of cyclophosphamide, the first at 150 mg/Kg 4 days before infection (day-4) and the second at 100 mg/Kg 1 day before infection (day-1). On day 0, individual animals were inoculated intramuscularly (IM) into the right thigh of test animals with 1.5×10^5 CFU/mouse of Methicillin Resistant Staphylococcus aureus (MRSA, ATCC 33591) suspended in 100 μL of sterile PBS, pH 7.4. Vehicle and test substances were administered intravenously (IV) at a dose volume of 8 mL/Kg, 2 and 14 hours after thigh infection. Example 1 was dissolved in 5% dextrose/1 mM potassium phosphate, pH 5.0 and administered at doses of 2.5, 5, 10, 15, 25 and 50 mg/Kg. At 26 hours after inoculation, muscle of the right thigh of each test mouse was harvested. From an additional group with no treatment, muscle of the right thigh was harvested at 2 hours after inoculation for the basal CFU determination. The removed muscle tissues were then homogenized in 3-4 mL of PBS, pH 7.4 with a ceramic mortar. Homogenates of 0.1 mL were used for serial 10-fold dilutions and plated on Mueller Hinton broth in 1.5% Bacto agar for CFU determination.

CC[C@H](C)[C@@H]1NC(=O)[C@@H]2NC(=O)[C@H](CC(C)C)NC(=O)[C@H](NC(=O)[C@@H]3CSC[C@@H](N)C(=O)N[C@@H](CO)C(=O)NCC(=O)N[C@@H](Cc4c[nH]c5ccccc45)C(=O)N[C@@H](C(C)C)C(=O)N3)[C@H](C)SC[C@H](NC(=O)[C@H](CCC(=O)O)NC1=O)C(=O)NCC(=O)N[C@H]1C(=O)N[C@@H](CC(C)C)C(=O)N[C@@H](C(C)C)C(=O)N[C@@H](CS[C@H]2C)C(=O)N[C@@H](C)C(=O)N[C@H](C(=O)NCc2cc(Cl)cc(Cl)c2)CS[C@H]1C [Example 1, Deoxyactagardine B (3,5-dichlorobenzylamine) monocarboxamide N-methyl glucamine salt]
MIC (MSSA; S. aureus 8325-4): 4 µg/mL | MIC (MSSA; S. aureus G12): 4 µg/mL | MIC (MSSA; S. aureus G15): 4 µg/mL | MIC (MSSA; S. aureus G20): 4 µg/mL | MIC (MSSA; S. aureus G22): 4 µg/mL | MIC (MSSA; S. aureus G23): 4 µg/mL | MIC (MSSA; S. aureus G26): 4 µg/mL | MIC (MSSA; S. aureus G28): 4 µg/mL | MIC (MSSA; S. aureus G29): 4 µg/mL | MIC (MSSA; S. aureus G30): 4 µg/mL | MIC (MSSA; S. aureus G31): 4 µg/mL | MIC (MSSA; S. aureus G32): 4 µg/mL | MIC (MSSA; S. aureus G33): 4 µg/mL | MIC (MSSA; S. aureus G35): 4 µg/mL | MIC (MSSA; S. aureus SH1000): 4 to 8 µg/mL | MIC ([1]; S. epidermidis 9AF): 16 µg/mL | MIC ([1]; S. epidermidis C12): 16 µg/mL | MIC ([1]; S. epidermidis C16): 16 µg/mL | MIC ([1]; S. epidermidis GRL05001): 8 µg/mL | MIC ([1]; S. epidermidis GRL05002): 8 µg/mL | MIC ([1]; S. epidermidis GRL05003): 8 µg/mL | MIC ([1]; S. epidermidis GRL05004): 4 to 8 µg/mL | MIC ([1]; S. epidermidis GRL05005): 4 to 8 µg/mL | MIC ([1]; S. epidermidis GRL05006): 4 to 8 µg/mL | MIC ([1]; S. epidermidis GRL05007): <16 µg/mL | MIC ([1]; S. epidermidis GRL05008): 4 to 8 µg/mL | MIC ([1]; S. epidermidis GRL05009): 16 µg/mL | MIC ([1]; S. epidermidis GRL05010): <16 µg/mL | MIC ([1]; S. epidermidis MF87): 4 µg/mL | MIC ([2]; E. faecium 7634337): 16 µg/mL | MIC ([2]; E. faecium 7662769): <16 µg/mL | MIC ([2]; E. faecium 7860190): 4 to 8 µg/mL | MIC ([2]; E. faecium 7865532): 16 µg/mL | MIC ([2]; E. faecium 9704998): 8 µg/mL | MIC ([2]; E. faecium 9709024): <16 µg/mL | MIC ([2]; E. faecium 9710577): 16 µg/mL | MIC (S. pyogenes; S. pyogenes 7713283): 0.06 µg/mL | MIC (S. pyogenes; S. pyogenes 7755255): <2 µg/mL | MIC (S. pyogenes; S. pyogenes 7755441): 0.06 µg/mL | MIC (S. pyogenes; S. pyogenes 7755584): 0.06 to 0.125 µg/mL | MIC (S. pyogenes; S. pyogenes 7757080): <1 µg/mL | MIC (S. pyogenes; S. pyogenes 7865253): 0.06 µg/mL | MIC (S. pyogenes; S. pyogenes 7865289): 0.06 µg/mL | MIC (S. pyogenes; S. pyogenes 7865844): 8 µg/mL | MIC (S. pyogenes; S. pyogenes GRL05041): <1 µg/mL | MIC (S. pyogenes; S. pyogenes GRL05042): 0.06 µg/mL | MIC (S. pyogenes; S. pyogenes GRL05043): <8 µg/mL | MIC (S. pyogenes; S. pyogenes GRL05045): <4 µg/mL | MIC (S. pyogenes; S. pyogenes GRL05046): 0.06 µg/mL | pH of saturated solution (Aqueous solubility; aqueous saturated solution, listed as N-methyl-D-glucamine salt): 8.43 | Solubility (Aqueous solubility; aqueous, * = calculations made from two determinations, listed as N-methyl-D-glucamine salt): 6.87* mg/mL | Solubility (Aqueous solubility; water, salts of compound 1, read-out: solubility): > 10000 µg/mL | bacterial counts in the thigh tissue [3]: dose dependent reduction

— patent US20120309676A1, “Lantibiotic Salts” (priority 2010, published 2012)
